Results published in ChEMBL document CHEMBL1201862, “PubChem BioAssay data set” (2004).
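Following 48 hours of exposure in 96-well plates, responses at five concentrations were used to interpolate endpoints linearly. GI50 is the concentration that inhibits growth by half.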 The source made the active and inactive calls. No stated cut-off is given here; in the data, active = GI50 up to about 1.1 µM and inactive = higher.

Assays:
Assay in all cases: inhibition of tumour cell growth, NCI panel, 48 h
HT-29 = system: HT-29
SNB-19 = system: SNB-19
SR = system: SR
HOP-92 = system: HOP-92
NCI-H460 = system: NCI-H460
SF-295 = system: SF-295
UACC-62 = system: UACC-62
NCI-H23 = system: NCI-H23
KM-20L2 = system: KM-20L2
SNB-75 = system: SNB-75
OVCAR-4 = system: OVCAR-4
SF-539 = system: SF-539
EKVX = system: EKVX
IGROV-1 = system: IGROV-1
M14 = system: M14
M19-MEL = system: M19-MEL
DLD-1 = system: DLD-1
NCI-H226 = system: NCI-H226
Hs-578T = system: Hs-578T
PC-3 = system: PC-3

COCN(C)c1nc(N(C)C)nc(N(C)C)n1
GI50 (HT-29): > 100 µM (inactive) | GI50 (SNB-19): > 100 µM (inactive) | GI50 (SR): > 100 µM (inactive) | GI50 (HOP-92): > 100 µM (inactive) | GI50 (NCI-H460): > 100 µM (inactive) | GI50 (SF-295): > 100 µM (inactive) | GI50 (UACC-62): > 100 µM (inactive) | GI50 (NCI-H23): > 100 µM (inactive) | GI50 (KM-20L2): > 100 µM (inactive) | GI50 (SNB-75): > 100 µM (inactive) | GI50 (OVCAR-4): > 100 µM (inactive) | GI50 (SF-539): > 100 µM (inactive) | GI50 (EKVX): > 100 µM (inactive) | GI50 (IGROV-1): > 100 µM (inactive) | GI50 (M14): > 100 µM (inactive) | GI50 (M19-MEL): > 100 µM (inactive) | GI50 (DLD-1): > 100 µM (inactive)

NC(CCC(=O)Nc1ccc(O)cc1)C(=O)O (centres undefined)
GI50 (HT-29): > 100 µM (inactive) | GI50 (SNB-19): > 100 µM (inactive) | GI50 (SR): > 100 µM (inactive) | GI50 (HOP-92): > 100 µM (inactive) | GI50 (NCI-H226): > 100 µM (inactive) | GI50 (NCI-H460): > 100 µM (inactive) | GI50 (UACC-62): > 100 µM (inactive) | GI50 (KM-20L2): > 100 µM (inactive) | GI50 (SNB-75): > 100 µM (inactive) | GI50 (OVCAR-4): > 100 µM (inactive) | GI50 (EKVX): > 100 µM (inactive) | GI50 (M14): > 100 µM (inactive) | GI50 (DLD-1): > 100 µM (inactive)

NCC(=O)OCN1C(=O)C2C3C=CC(C2C1=O)C1C2C(=O)N(COC(=O)CN)C(=O)C2C31 (centres undefined)
GI50 (HT-29): 40.6 µM (inactive) | GI50 (SNB-19): 71.3 µM (inactive) | GI50 (HOP-92): 94 µM (inactive) | GI50 (NCI-H226): 50.5 µM (inactive) | GI50 (NCI-H460): 16.6 µM (inactive) | GI50 (SF-295): > 100 µM (inactive) | GI50 (UACC-62): 23 µM (inactive) | GI50 (NCI-H23): 21.1 µM (inactive) | GI50 (KM-20L2): 24.3 µM (inactive) | GI50 (SNB-75): 23.6 µM (inactive) | GI50 (OVCAR-4): 20 µM (inactive) | GI50 (SF-539): 30.2 µM (inactive) | GI50 (IGROV-1): 41.8 µM (inactive) | GI50 (M14): 20.5 µM (inactive) | GI50 (M19-MEL): 24.8 µM (inactive) | GI50 (DLD-1): 24.3 µM (inactive)

CC(C)(CCc1nc2ccccc2[nH]1)C(=O)O
GI50 (HT-29): > 100 µM (inactive) | GI50 (SNB-19): > 100 µM (inactive) | GI50 (SR): > 100 µM (inactive) | GI50 (HOP-92): > 100 µM (inactive) | GI50 (NCI-H226): > 100 µM (inactive) | GI50 (NCI-H460): > 100 µM (inactive) | GI50 (SF-295): > 100 µM (inactive) | GI50 (UACC-62): > 100 µM (inactive) | GI50 (Hs-578T): > 100 µM (inactive) | GI50 (NCI-H23): > 100 µM (inactive) | GI50 (SNB-75): > 100 µM (inactive) | GI50 (OVCAR-4): > 100 µM (inactive) | GI50 (SF-539): > 100 µM (inactive) | GI50 (EKVX): > 100 µM (inactive) | GI50 (IGROV-1): > 100 µM (inactive) | GI50 (PC-3): > 100 µM (inactive) | GI50 (M14): > 100 µM (inactive)

COc1ccc(N/N=C(\CCN(C)C)c2ccccc2)cc1
GI50 (HT-29): 6.85 µM (inactive) | GI50 (SNB-19): 3.01 µM (inactive) | GI50 (SR): 3.17 µM (inactive) | GI50 (NCI-H460): 3.12 µM (inactive) | GI50 (SF-295): 0.437 µM (active) | GI50 (UACC-62): 1.9 µM (inactive) | GI50 (NCI-H23): 4.43 µM (inactive) | GI50 (KM-20L2): 0.489 µM (active) | GI50 (SNB-75): 8.04 µM (inactive) | GI50 (OVCAR-4): 4.67 µM (inactive) | GI50 (SF-539): 1.68 µM (inactive) | GI50 (EKVX): 2.2 µM (inactive) | GI50 (IGROV-1): 4.18 µM (inactive) | GI50 (M14): 10.9 µM (inactive) | GI50 (M19-MEL): 3.82 µM (inactive) | GI50 (DLD-1): 1.66 µM (inactive)
